Experimental data reported in PubChem BioAssay AID330 (DTP/NCI, 2004).
Several values for one entry are separate records, joined by “and”; a condition that tells them apart may be missing. Equal values may be shown once. Toxic doses and inconclusive results are not listed. Rule for the calls: active = survival T/C of 150% or more; inactive = T/C below 125% in these data.

Test system: P388 leukemia ip, CD2F1 mice, survival T/C
Assay: NCI In Vivo Anticancer Drug Screen. Data for tumor model P388 Leukemia (intraperitoneal) in CD2F1 (CDF1) mice
Conditions: endpoint: median survival time, higher = longer survival
Method in brief: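 Mice carrying the transplanted tumor received test compound or vehicle. Survival was recorded in each group, and the value is the treated-group measurement divided by that of the vehicle-treated control group.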

[1] = dose: 12.5 mg/kg/injection, schedule: Q01DX005 (ip), vehicle: Klucel (hydroxypropylcellulose) (HPC)
[2] = dose: 25.0 mg/kg/injection, schedule: Q01DX005 (ip), vehicle: Klucel (hydroxypropylcellulose) (HPC)
[3] = dose: 50.0 mg/kg/injection, schedule: Q01DX005 (ip), vehicle: Klucel (hydroxypropylcellulose) (HPC)
[4] = dose: 100.0 mg/kg/injection, schedule: Q04DX003 (ip), vehicle: saline
[5] = dose: 200.0 mg/kg/injection, schedule: Q04DX003 (ip), vehicle: saline
[6] = dose: 400.0 mg/kg/injection, schedule: Q04DX003 (ip), vehicle: saline
[7] = dose: 50.0 mg/kg/injection, schedule: Q01DX005 (ip), vehicle: saline with Tween-80
[8] = dose: 200.0 mg/kg/injection, schedule: Q01DX005 (ip), vehicle: saline with Tween-80
[9] = dose: 100.0 mg/kg/injection, schedule: Q01DX009 (ip), vehicle: Klucel (hydroxypropylcellulose) (HPC)
[10] = dose: 200.0 mg/kg/injection, schedule: Q01DX009 (ip), vehicle: Klucel (hydroxypropylcellulose) (HPC)

Measured: T/C

O=C1c2ccncc2C(=O)c2c(O)ccc(O)c21
inactive: dose: 12.5 mg/kg/injection, schedule: Q01DX009 (ip), vehicle: distilled water + Tween-80 102 % of control | dose: 25.0 mg/kg/injection, schedule: Q01DX009 (ip), vehicle: distilled water + Tween-80 100 % of control | dose: 50.0 mg/kg/injection, schedule: Q01DX009 (ip), vehicle: distilled water + Tween-80 98 % of control | dose: 100.0 mg/kg/injection, schedule: Q01DX009 (ip), vehicle: distilled water + Tween-80 109 % of control

C=C1C(=O)O[C@H]2CC3=CCC[C@H](C)[C@@]3(C)C[C@@H]12
inactive: dose: 2.25 mg/kg/injection, schedule: Q01DX005 (ip), vehicle: Klucel (hydroxypropylcellulose) (HPC) 100 % of control | dose: 4.5 mg/kg/injection, schedule: Q01DX005 (ip), vehicle: Klucel (hydroxypropylcellulose) (HPC) 96 % of control | dose: 9.0 mg/kg/injection, schedule: Q01DX005 (ip), vehicle: Klucel (hydroxypropylcellulose) (HPC) 99 % of control | dose: 18.0 mg/kg/injection, schedule: Q01DX005 (ip), vehicle: Klucel (hydroxypropylcellulose) (HPC) 101 % of control | dose: 36.0 mg/kg/injection, schedule: Q01DX005 (ip), vehicle: Klucel (hydroxypropylcellulose) (HPC) 99 % of control

O=C1CN=CN1
inactive: dose: 60.0 mg/kg/injection, schedule: Q01DX005 (ip), vehicle: saline 96 % of control | dose: 120.0 mg/kg/injection, schedule: Q01DX005 (ip), vehicle: saline 96 % of control | dose: 240.0 mg/kg/injection, schedule: Q01DX005 (ip), vehicle: saline 102 % of control

CN1NC(c2ccccc2)=C(C#N)C(=O)CC1c1ccc(Cl)cc1 (centres undefined)
inactive: dose: 3.75 mg/kg/injection, schedule: Q01DX005 (ip), vehicle: saline with Tween-80 117 % of control | dose: 7.5 mg/kg/injection, schedule: Q01DX005 (ip), vehicle: saline with Tween-80 100 % of control and 101 % of control and 113 % of control

COc1ccc(OC)c(/C=C2/C(=O)N(c3ccccc3)N=C2C)c1
inactive: dose: 60.0 mg/kg/injection, schedule: Q01DX005 (ip), vehicle: Klucel (hydroxypropylcellulose) (HPC) 107 % of control | dose: 120.0 mg/kg/injection, schedule: Q01DX005 (ip), vehicle: Klucel (hydroxypropylcellulose) (HPC) 105 % of control | dose: 240.0 mg/kg/injection, schedule: Q01DX005 (ip), vehicle: Klucel (hydroxypropylcellulose) (HPC) 107 % of control

COc1ccc2cc1Oc1ccc(cc1)CC1c3cc(OC)c(cc3CCN1C)Oc1c(OC)c(OC)cc3c1C(C2)N(C)CC3 (centres undefined)
inactive: [1] 92 % of control | [2] 95 % of control | [3] 94 % of control | dose: 100.0 mg/kg/injection, schedule: Q01DX001 (ip), vehicle: saline with Tween-80 98 % of control | dose: 100.0 mg/kg/injection, schedule: Q01DX005 (ip), vehicle: Klucel (hydroxypropylcellulose) (HPC) 86 % of control | dose: 200.0 mg/kg/injection, schedule: Q01DX001 (ip), vehicle: saline with Tween-80 86 % of control | dose: 400.0 mg/kg/injection, schedule: Q01DX001 (ip), vehicle: saline with Tween-80 86 % of control

CC(C)(O)/C=C/C(=O)C(C)(O)C1C(O)CC2(C)C3CC=C4C(CC(=O)C(O)C4(C)C)C3(C)C(=O)CC12C (centres undefined)
inactive: dose: 0.5 mg/kg/injection, schedule: Q01DX009 (ip), vehicle: saline + alcohol 119 % of control | dose: 1.0 mg/kg/injection, schedule: Q01DX009 (ip), vehicle: saline + alcohol 119 % of control | dose: 2.0 mg/kg/injection, schedule: Q01DX009 (ip), vehicle: saline + alcohol 121 % of control and 120 % of control

O=NN(C(=O)NC1CC1)C1CCCC1
inactive: dose: 25.0 mg/kg/injection, schedule: Q01DX001 (ip), vehicle: distilled water + Tween-80 103 % of control | dose: 50.0 mg/kg/injection, schedule: Q01DX001 (ip), vehicle: distilled water + Tween-80 109 % of control | dose: 100.0 mg/kg/injection, schedule: Q01DX001 (ip), vehicle: distilled water + Tween-80 102 % of control | dose: 200.0 mg/kg/injection, schedule: Q01DX001 (ip), vehicle: distilled water + Tween-80 111 % of control | dose: 400.0 mg/kg/injection, schedule: Q01DX001 (ip), vehicle: distilled water + Tween-80 102 % of control

Cc1ccc(C2NC(c3ccc(C)cc3)C3CCCC2C3O)cc1 (centres undefined)
inactive: [4] 100 % of control | [5] 97 % of control | [6] 95 % of control

O=C(CCCl)Oc1ccc(Br)cc1
inactive: dose: 100.0 mg/kg/injection, schedule: Q01DX009 (ip), vehicle: saline sonified 111 % of control | dose: 200.0 mg/kg/injection, schedule: Q01DX009 (ip), vehicle: saline sonified 100 % of control | dose: 400.0 mg/kg/injection, schedule: Q01DX009 (ip), vehicle: saline sonified 94 % of control

CC(C)N(C(=S)/N=C1/SC(C)S(=O)(=O)N1C)C(C)C (centres undefined)
inactive: dose: 25.0 mg/kg/injection, schedule: Q01DX009 (ip), vehicle: saline with Tween-80 117 % of control | dose: 50.0 mg/kg/injection, schedule: Q01DX009 (ip), vehicle: saline with Tween-80 97 % of control | dose: 100.0 mg/kg/injection, schedule: Q01DX009 (ip), vehicle: saline with Tween-80 100 % of control

O=C(O)/C=C/c1c2ccc(=O)c(O)c-2oc2c(O)c(O)ccc12
inactive: dose: 60.0 mg/kg/injection, schedule: Q01DX005 (ip), vehicle: saline with Tween-80 93 % of control | dose: 120.0 mg/kg/injection, schedule: Q01DX005 (ip), vehicle: saline with Tween-80 93 % of control | dose: 240.0 mg/kg/injection, schedule: Q01DX005 (ip), vehicle: saline with Tween-80 92 % of control

Cc1ccc(S(=O)(=O)N/N=C/c2ccc(Cl)cc2)cc1
inactive: dose: 12.5 mg/kg/injection, schedule: Q01DX005 (ip), vehicle: saline with Tween-80 102 % of control | dose: 25.0 mg/kg/injection, schedule: Q01DX005 (ip), vehicle: saline with Tween-80 104 % of control and 108 % of control | [7] 100 % of control and 106 % of control and 107 % of control | [8] 121 % of control

O=C(CCS(=O)O)c1cccs1
inactive: [4] 99 % of control | [5] 96 % of control | [6] 92 % of control

Cc1ncc([N+](=O)[O-])n1Cc1nnc(N)s1
inactive: dose: 50.0 mg/kg/injection, schedule: Q01DX009 (ip), vehicle: Klucel (hydroxypropylcellulose) (HPC) 107 % of control | [9] 107 % of control | [10] 108 % of control

CCCCOP(O)(=S)OCCCC.[Ti]
inactive: [9] 96 % of control | [10] 96 % of control | dose: 400.0 mg/kg/injection, schedule: Q01DX009 (ip), vehicle: Klucel (hydroxypropylcellulose) (HPC) 95 % of control

CC(=O)N(O)c1ccc(C(N)=O)cc1
inactive: dose: 50.0 mg/kg/injection, schedule: Q01DX009 (ip), vehicle: saline 99 % of control | dose: 100.0 mg/kg/injection, schedule: Q01DX009 (ip), vehicle: saline 106 % of control | dose: 200.0 mg/kg/injection, schedule: Q01DX009 (ip), vehicle: saline 106 % of control

[Cl][Pt]([Cl])([Cl])[Cl]
inactive: dose: 12.5 mg/kg/injection, schedule: Q01DX009 (ip), vehicle: saline 123 % of control | dose: 25.0 mg/kg/injection, schedule: Q01DX009 (ip), vehicle: saline 111 % of control

Cc1ccc(S(=O)(=O)N/N=C\c2cccnc2)cc1
inactive: dose: 12.5 mg/kg/injection, schedule: Q01DX009 (ip), vehicle: other 105 % of control | dose: 25.0 mg/kg/injection, schedule: Q01DX009 (ip), vehicle: other 110 % of control | dose: 50.0 mg/kg/injection, schedule: Q01DX009 (ip), vehicle: other 105 % of control | dose: 100.0 mg/kg/injection, schedule: Q01DX009 (ip), vehicle: other 109 % of control and 95 % of control | dose: 200.0 mg/kg/injection, schedule: Q01DX009 (ip), vehicle: other 99 % of control and 100 % of control | dose: 400.0 mg/kg/injection, schedule: Q01DX009 (ip), vehicle: other 101 % of control

Cc1cc(N/N=C/c2ccnc3ccccc23)c2cc3c(cc2n1)OCO3
inactive: [1] 90 % of control and 93 % of control | [2] 100 % of control and 105 % of control | [3] 103 % of control and 108 % of control

ClC1CC(C(Cl)(Cl)Cl)CCC1C(Cl)(Cl)Cl (centres undefined)
inactive: [7] 98 % of control | dose: 100.0 mg/kg/injection, schedule: Q01DX005 (ip), vehicle: saline with Tween-80 96 % of control | [8] 96 % of control
